Test results from patent US10800776B2, “Fluorine-containing triazolopyridine, and manufacturing method, pharmaceutical composition, and application thereof” (SHANGHAI INSTITUTE OF MATERIA MEDICA, CHINESE ACADEMY OF …, priority 2016, dated 2020).

Legend:
[1] = target: mGluR2 (Homo sapiens (Human), UniProt Q14416); assay: In vitro activity test for mGluR2 (HDB Fluo-8 calcium fluorescence, HEK/mGluR2 cell line); assay type: cell-based
Excerpt: Experimental materials: HEK/mGluR2 cell line (human […] transfected HEK cell line), DMEM (FBS) medium, positive control LY487379 (purchased from sigma; CAS: to 352317-17-1)
Experimental instrument: FLIPR Tetra real-time fluorescence imaging analysis system
Experimental method: HDB Fluo-8 calcium fluorescence detection method
Experimental principle: HDB Fluo-8 calcium ion fluorescence detection method is a fast, simple and reliable fluorescence detection method of intracellular calcium concentration changes. The Fluo 8-AM fluorescent dye is an acetyl methyl ester derivative of Fluo 8 which can easily penetrate into the cell membrane by culture. The fluorescent dye in the cell will be hydrolyzed by intracellular esterase, the resulting Fluo 8 as a polar molecule, cannot easily pass through the lipid bimolecular membrane, and will be retained in the cell, and combine with calcium (Ca^2+) to produce fluoresces.
Cells expressing GPCR receptor protein (mGluR2) were first calibrated with a calcium ion sensitive fluorescent probe and then stimulated with the compound. After stimulation, the receptor activates the calcium ion mobilization, and the fluorescent probe captures the calcium ion to induce the fluorescence signal. The signal can be read by a fluoroscopy plate. The fluorescent plate reader contains a sample addition for compound addition, thus enabling the change of the fluorescence value of the compound be read in real time.

[2] = test system: ICR mice; assay: Mouse swimming depression test; assay type: in vivo; conditions: for non-movement time (%) Mean ± SEM: orally, 1 hour before test
Experimental: Experiment objectives: to observe the effect of the test compound on the depressive status of mice
Experimental animals: ICR mice, 20-28 g, both male and female
Experimental equipment: plexiglass tube: cylindrical, 25 cm high, 15 cm inner diameter
Sample treatment: The test compounds were ground with 1% CMC (sodium carboxymethyl cellulose) to prepare a homogeneous solution. In vivo dose was 5 mg/kg, 10 mg/kg and 20 mg/kg, the compound was orally administrated at 0.1 ml/10 g volume/body weight. Positive control drugs (amitriptyline and fluoxetine) were dissolved with 0.9% saline, in vivo dose was 10 mg/kg, intraperitoneal injected at 0.1 ml/10 g volume/body weight. (Note: mice were given the compound after fasted for 8 hours without water-fasted.)
Experimental principle: The mouse is placed in a limited space which can not escape to swim, thus inducing animals to non-movement state which reflects the animal's desperate behavior.
Experimental Methods: mice were grouped randomly, 15 minutes swimming depression was modeled at the first day, and equivalent mice were selected. The second day of the test, 1 hour after the animals were orally administered the compound (0.5 hours after intraperitoneal injection) and then the animals were put in water to record the non-movement time in the later 4 min of 6 min.

[3] = test system: C57BL/6 mice; assay: Mouse open field experiment; assay type: in vivo; conditions: for Central area dwell time (s) Mean ± SEM / Central area traveling distance percentage (%) Mean ± SEM / Total moving distance (cm) Mean ± SEM: 30 mg/kg i.p., 1 hour before, 30-minute test
Experimental: Experiment objectives: to observe the anti-anxiety effect of the test compound on the mice by open field experiment.
Experimental animals: male C57BL/6 mice, 10 weeks old, purchased from Beijing Huafukang Biotechnology Co., Ltd.
Animal rearing: The temperature in the animal room was maintained at 20-25° C., the humidity was maintained at 40-70%, and the photoperiod was 12 hours light and 12 hours dark. During feeding, the mice were housed in standard mouse cages, with colored labels on each cage clearly indicating the item number, and the basic information such as the responsible person, group, animal number and animal gender. All animals were given free access to pure water and standard certified rodent feed. Before the start of the experiment, the experimental animals were adapted to the feeding environment for at least one week.
The compound to be tested, intraperitoneally administered, 30 mg/kg.
Experimental principle: Based on the instincts of rodents tending to avoid light and fear of exploring open fields. When the experimental animals were first placed in the open field, the central area was a potential threat to the animals, while the peripheral area was relatively safe, and rats and mice were more likely to move along the perimeter of the field. Therefore, if the animal is of high anxiety level, it tends to stay in the peripheral area. Conversely, the number and time of exploration in the central area will increase.
Experimental grouping and administration: Experimental animals were randomly divided into 5 groups as follows:
During the 30-minute test period, the total distance traveled by the experimental animals, the central area dwell time, and the percentage of the central area travel distance will be detected and recorded.

Sequence of mGluR2 (Q14416 19-872): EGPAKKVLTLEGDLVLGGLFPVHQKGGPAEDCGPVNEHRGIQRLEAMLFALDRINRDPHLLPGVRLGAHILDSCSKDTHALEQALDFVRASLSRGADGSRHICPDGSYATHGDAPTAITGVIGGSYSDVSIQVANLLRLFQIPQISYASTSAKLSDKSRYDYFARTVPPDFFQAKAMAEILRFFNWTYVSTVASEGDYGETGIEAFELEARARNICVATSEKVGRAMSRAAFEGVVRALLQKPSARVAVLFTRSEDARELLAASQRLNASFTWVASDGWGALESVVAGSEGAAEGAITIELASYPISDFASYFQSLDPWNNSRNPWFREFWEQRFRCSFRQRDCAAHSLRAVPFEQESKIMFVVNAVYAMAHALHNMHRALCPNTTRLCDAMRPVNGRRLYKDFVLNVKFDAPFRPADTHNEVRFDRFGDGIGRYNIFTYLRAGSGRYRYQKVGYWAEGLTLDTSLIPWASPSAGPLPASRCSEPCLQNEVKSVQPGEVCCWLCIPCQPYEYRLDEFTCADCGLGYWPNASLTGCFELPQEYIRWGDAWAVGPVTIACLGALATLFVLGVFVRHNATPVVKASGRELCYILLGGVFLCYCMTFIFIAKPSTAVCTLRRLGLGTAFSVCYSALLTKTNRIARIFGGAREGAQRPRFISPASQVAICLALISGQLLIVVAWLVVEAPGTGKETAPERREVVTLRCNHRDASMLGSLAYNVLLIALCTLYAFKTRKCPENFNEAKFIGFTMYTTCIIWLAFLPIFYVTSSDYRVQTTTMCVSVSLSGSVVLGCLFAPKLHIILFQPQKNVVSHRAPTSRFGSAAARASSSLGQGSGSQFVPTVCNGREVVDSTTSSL

FC1(F)CC1Cc1nnc2c(Cl)c(-c3ccc4c(c3)OCO4)ccn12 (centres unmarked) [Compound 50, 7-(Benzo[d][1,3]dioxol-5-yl)-8-chloro-3-((2,2-difluorocyclopropyl)methyl)-[1,2,4]triazole [4,3-a]pyridine] was tested, and the EC50 [1] was 0.0623 µM, the “non-movement time (%) Mean ± SEM” value ([2]; 5 mg/kg) was 84.06 ± 10.65% and the “non-movement time (%) Mean ± SEM” value ([2]; 10 mg/kg) was 52.10 ± 15.86%. For the same compound, the “non-movement time (%) Mean ± SEM” value ([2]; 20 mg/kg) was 57.08 ± 17.80%, the “Central area dwell time (s) Mean ± SEM” value [3] was 81.1 ± 10.2 s and the “Central area traveling distance percentage (%) Mean ± SEM” value [3] was 13.91 ± 0.96%. The “Total moving distance (cm) Mean ± SEM” value [3] was 4407.2 ± 390.5 cm.
With COC(=O)c1ccc(-c2ccn3c(CC4CC4(F)F)nnc3c2Cl)c(F)c1 (centres unmarked) [Compound 45, Methyl 4-(8-Chloro-3-((2,2-difluorocyclopropyl)methyl)-[1,2,4]triazole[4,3-a]pyridin-7-yl)-3-fluorobenzoate] the EC50 [1] was 0.0879 µM, the “non-movement time (%) Mean ± SEM” value ([2]; 5 mg/kg) was 63.99 ± 11.00% and the “non-movement time (%) Mean ± SEM” value ([2]; 10 mg/kg) was 34.88 ± 6.57%. For the same compound, the “non-movement time (%) Mean ± SEM” value ([2]; 20 mg/kg) was 56.29 ± 17.56%, the “"no movement time" of swimming in mice (in words)” value ([2]; mouse, in vivo) was “effectively shorten” and the antidepressant effect ([2]; mouse, in vivo) was “significant antidepressant effect”. The “Central area dwell time (s) Mean ± SEM” value [3] was 110 ± 13.0 s, the “Central area traveling distance percentage (%) Mean ± SEM” value [3] was 19.39 ± 1.63 % and the “Total moving distance (cm) Mean ± SEM” value [3] was 5043.2 ± 457.5 cm. For the same compound, the “central region's range of motion” value ([3]; dosage of 30 mg/kg) was “significantly increase”.
